Molecular target: T1, ΔF508-CFTR (Homo sapiens, UniProt P13569, DEL508-508)
T1 construct: expressed in transfected cells
Experiment: Membrane potential optical assay (FRET voltage-sensor dyes, VIPR), identification of potentiator compounds
Type: cell-based
Details: Table 3, assay not given; for Emax: read-out: % Activity (% Efficacy, relative efficacy)
Method in brief: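 Potentiator screen measured membrane potential via FRET between CC2-DMPE donor and DiSBAC2(3), read on VIPR II. Compound went in with the first addition of chloride-free gluconate bath; cells were ΔF508-CFTR-expressing NIH3T3 mouse fibroblasts, temperature-corrected at 27 °C for 24 h.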

T1 sequence (P13569 with tags, fused parts or gaps DEL508-508): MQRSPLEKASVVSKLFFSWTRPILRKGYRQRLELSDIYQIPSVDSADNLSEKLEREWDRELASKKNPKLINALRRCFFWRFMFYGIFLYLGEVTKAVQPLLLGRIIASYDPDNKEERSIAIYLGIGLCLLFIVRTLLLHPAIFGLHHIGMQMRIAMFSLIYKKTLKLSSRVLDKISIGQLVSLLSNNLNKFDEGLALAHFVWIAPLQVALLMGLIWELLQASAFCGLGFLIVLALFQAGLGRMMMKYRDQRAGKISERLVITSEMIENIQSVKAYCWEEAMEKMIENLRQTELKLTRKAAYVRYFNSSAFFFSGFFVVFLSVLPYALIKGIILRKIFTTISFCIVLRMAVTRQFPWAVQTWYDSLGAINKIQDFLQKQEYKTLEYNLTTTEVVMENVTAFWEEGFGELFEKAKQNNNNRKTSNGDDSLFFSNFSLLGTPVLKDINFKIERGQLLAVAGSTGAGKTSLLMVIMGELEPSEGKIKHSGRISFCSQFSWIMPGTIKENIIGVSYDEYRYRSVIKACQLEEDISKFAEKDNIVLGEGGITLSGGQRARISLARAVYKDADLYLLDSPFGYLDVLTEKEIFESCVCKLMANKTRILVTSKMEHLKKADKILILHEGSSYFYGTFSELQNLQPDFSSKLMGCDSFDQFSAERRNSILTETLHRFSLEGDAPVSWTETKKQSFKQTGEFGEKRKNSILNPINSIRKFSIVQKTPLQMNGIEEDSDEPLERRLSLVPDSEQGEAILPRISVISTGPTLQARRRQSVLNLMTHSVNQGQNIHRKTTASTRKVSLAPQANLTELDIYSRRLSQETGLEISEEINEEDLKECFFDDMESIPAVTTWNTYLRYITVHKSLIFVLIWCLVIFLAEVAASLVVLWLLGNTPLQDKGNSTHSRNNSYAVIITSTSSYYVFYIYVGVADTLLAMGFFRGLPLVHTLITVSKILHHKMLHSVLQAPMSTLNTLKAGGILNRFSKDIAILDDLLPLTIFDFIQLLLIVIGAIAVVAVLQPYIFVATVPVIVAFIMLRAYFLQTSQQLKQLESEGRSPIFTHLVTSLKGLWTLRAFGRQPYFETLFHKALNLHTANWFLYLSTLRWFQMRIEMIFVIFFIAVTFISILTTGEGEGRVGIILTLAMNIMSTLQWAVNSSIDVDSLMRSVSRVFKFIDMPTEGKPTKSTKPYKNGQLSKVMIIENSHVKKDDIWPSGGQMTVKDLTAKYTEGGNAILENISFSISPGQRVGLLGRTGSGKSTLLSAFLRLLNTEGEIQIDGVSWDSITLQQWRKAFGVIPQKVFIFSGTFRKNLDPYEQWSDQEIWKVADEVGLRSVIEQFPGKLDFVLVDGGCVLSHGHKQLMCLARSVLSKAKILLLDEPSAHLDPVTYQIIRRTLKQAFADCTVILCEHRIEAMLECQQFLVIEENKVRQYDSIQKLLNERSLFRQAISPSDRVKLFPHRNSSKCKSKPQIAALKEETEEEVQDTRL

| SMILES | Emax | EC50 |
| --- | --- | --- |
| CC(C)(C)c1cc(NC(=O)c2c[nH]c3ccccc3c2=O)c(O)c(C(C)(C)C)c1 [Compound 136, N-(2-hydroxy-3,5-ditert-butyl-phenyl)-4-oxo-1H-quinoline-3-carboxamide] | 25 to 100% | – |
| Cc1ccc(C)c(NC(=O)c2c[nH]c3ccccc3c2=O)c1 [Compound 434, N-(2,5-dimethylphenyl)-4-oxo-1H-quinoline-3-carboxamide] | 25 to 100% | – |
| CCOCCOc1cc(NC(=O)c2c[nH]c3ccccc3c2=O)ccc1C(C)(C)C [Compound 161, N-[3-(2-ethoxyethoxy)-4-tert-butyl-phenyl]-4-oxo-1H-quinoline-3-carboxamide] | 25 to 100% | – |
| Cc1cccc2[nH]cc(C(=O)Nc3ccc(N4CCC(F)(F)C4)cc3C(F)(F)F)c(=O)c12 [Compound 528, N-[4-(3,3-difluoropyrrolidin-1-yl)-2-(trifluoromethyl)phenyl]-5-methyl-4-oxo-1H-quinoline-3-carboxamide] | 25 to 100% | – |
| O=C(Nc1ccccc1Cl)c1c[nH]c2ccccc2c1=O [Compound 330, N-(2-chlorophenyl)-4-oxo-1H-quinoline-3-carboxamide] | 25 to 100% | – |
| COc1ccccc1-c1cc2cc[nH]c2cc1NC(=O)c1c[nH]c2ccccc2c1=O [Compound 237, N-[5-(2-methoxyphenyl)-1H-indol-6-yl]-4-oxo-1H-quinoline-3-carboxamide] | 25 to 100% | < 10 µM |
| O=C(Nc1ccc(N2CC[C@H](O)C2)cc1C(F)(F)F)c1c[nH]c2ccccc2c1=O [Compound 655, (S)-N-(4-(3-hydroxypyrrolidin-1-yl)-2-(trifluoromethyl)phenyl)-4-oxo-1,4-dihydroquinoline-3-carboxamide] | 25 to 100% | – |
| CC(C)(C)c1ccc(NC(=O)c2c[nH]c3ccccc3c2=O)cc1CN [Compound 390, N-[3-(Aminomethyl)-4-tert-butyl-phenyl]-4-oxo-1H-quinoline-3-carboxamide] | < 25% | – |
| CC(C)(C)c1cc(F)c(NC(=O)c2c[nH]c3cc(F)c(F)cc3c2=O)cc1O [Compound 486, 6,7-difluoro-N-(2-fluoro-5-hydroxy-4-tert-butyl-phenyl)-4-oxo-1H-quinoline-3-carboxamide] | 25 to 100% | – |
| O=C(Nc1ccc(C(F)(F)F)cc1Cl)c1c[nH]c2ccccc2c1=O [Compound 532, N-[2-chloro-4-(trifluoromethyl)phenyl]-4-oxo-1H-quinoline-3-carboxamide] | 25 to 100% | – |
| Cc1cccc2[nH]cc(C(=O)Nc3ccc(N4CCC(C)(C)C4)cc3C(F)(F)F)c(=O)c12 [Compound 578, N-[4-(3,3-dimethylpyrrolidin-1-yl)-2-(trifluoromethyl)phenyl]-5-methyl-4-oxo-1H-quinoline-3-carboxamide] | 25 to 100% | – |
| COc1ccc(-c2ccccc2NC(=O)c2c[nH]c3ccccc3c2=O)cc1 [Compound 305, N-[2-(4-methoxyphenyl)phenyl]-4-oxo-1H-quinoline-3-carboxamide] | > 100% | – |
| Cc1cccc(NC(=O)c2c[nH]c3ccccc3c2=O)c1C#N [Compound 201, N-(2-cyano-3-methyl-phenyl)-4-oxo-1H-quinoline-3-carboxamide] | < 25% | – |
| O=C(Nc1ccccc1-c1ccoc1)c1c[nH]c2ccccc2c1=O [Compound 123, N-[2-(3-furyl)phenyl]-4-oxo-1H-quinoline-3-carboxamide] | 25 to 100% | < 10 µM |
| COC(=O)[C@@H]1[C@@H](C)CCN1c1ccc(NC(=O)c2c[nH]c3ccccc3c2=O)c(C(F)(F)F)c1 [Compound 530, (2S,3S)-methyl 3-methyl-1-(4-(4-oxo-1,4-dihydroquinoline-3-carboxamido)-3-(trifluoromethyl)phenyl)pyrrolidine-2-carboxylate] | 25 to 100% | – |
| O=C(Nc1ccccc1-c1cccc(Cl)c1)c1c[nH]c2ccccc2c1=O [Compound 307, N-[2-(3-chlorophenyl)phenyl]-4-oxo-1H-quinoline-3-carboxamide] | 25 to 100% | – |

| SMILES | Emax | EC50 |
| --- | --- | --- |
| CC(C)(C)c1cc(F)c(NC(=O)c2c[nH]c3c(C(F)(F)F)cccc3c2=O)cc1O [Compound 638, N-(2-fluoro-5-hydroxy-4-tert-butyl-phenyl)-4-oxo-8-(trifluoromethyl)-1H-quinoline-3-carboxamide] | < 25% | – |
| CC(=O)Nc1ccc(C(C)C)c(NC(=O)c2c[nH]c3ccccc3c2=O)c1 [Compound 243, N-(5-acetylamino-2-isopropyl-phenyl)-4-oxo-1H-quinoline-3-carboxamide] | 25 to 100% | 10 to 25 µM |
| Cc1ccc(C(F)(F)F)cc1NC(=O)c1c[nH]c2cccc(O)c2c1=O [Compound 676, 5-hydroxy-N-[2-methyl-5-(trifluoromethyl)phenyl]-4-oxo-1H-quinoline-3-carboxamide] | 25 to 100% | – |
| O=C(Nc1cccc(SC(F)(F)F)c1)c1c[nH]c2ccccc2c1=O [Compound 456, 4-oxo-N-[3-(trifluoromethylsulfanyl)phenyl]-1H-quinoline-3-carboxamide] | 25 to 100% | – |
| CCc1ccc(NC(=O)c2c[nH]c3ccccc3c2=O)cc1NC(C)=O [Compound 149, N-(3-acetylamino-4-ethyl-phenyl)-4-oxo-1H-quinoline-3-carboxamide] | 25 to 100% | – |
| CC(C)(C)c1cc2cc[nH]c2cc1NC(=O)c1c[nH]c2ccccc2c1=O [Compound 381, 4-oxo-N-(5-tert-butyl-1H-indol-6-yl)-1H-quinoline-3-carboxamide] | 25 to 100% | – |
| Cc1cccc2[nH]cc(C(=O)Nc3ccc(N4C[C@@H]5CC[C@H]4C5)cc3C(F)(F)F)c(=O)c12 [Compound 582, N-(4-((1S,4R)-2-azabicyclo[2.2.1]heptan-2-yl)-2-(trifluoromethyl)phenyl)-5-methyl-4-oxo-1,4-dihydroquinoline-3-carboxamide] | 25 to 100% | – |
| O=C(Nc1ccc(CO)cc1)c1c[nH]c2ccccc2c1=O [Compound 209, N-[4-(hydroxymethyl)phenyl]-4-oxo-1H-quinoline-3-carboxamide] | 25 to 100% | – |
| COc1ccc(C(C)(C)C)cc1NC(=O)c1c[nH]c2ccccc2c1=O [Compound 211, N-(2-methoxy-5-tert-butyl-phenyl)-4-oxo-1H-quinoline-3-carboxamide] | 25 to 100% | – |
| CCc1c[nH]c2cc(NC(=O)c3c[nH]c4ccccc4c3=O)ccc12 [Compound 383, N-(3-ethyl-1H-indol-6-yl)-4-oxo-1H-quinoline-3-carboxamide] | 25 to 100% | – |
| CC(C)(C)c1ccc(NC(=O)c2c[nH]c3ccccc3c2=O)cc1 [Compound 448, 4-oxo-N-(4-tert-butylphenyl)-1H-quinoline-3-carboxamide] | 25 to 100% | – |
| Cc1cc(C(C)(C)C)c(O)cc1NC(=O)c1c[nH]c2ccccc2c1=O [Compound 518, N-(5-hydroxy-2-methyl-4-tert-butyl-phenyl)-4-oxo-1H-quinoline-3-carboxamide] | 25 to 100% | – |
| COC(=O)NC1CCCc2ccc(NC(=O)c3c[nH]c4ccccc4c3=O)cc21 (stereo not shown) [Compound 159, [7-[(4-Oxo-1H-quinolin-3-yl)carbonylamino]tetralin-1-yl]aminoformic acid methyl ester] | 25 to 100% | – |
| CCOC(=O)Nc1ccc(C(C)C)c(NC(=O)c2c[nH]c3ccccc3c2=O)c1 [Compound 269, [4-isopropyl-3-[(4-oxo-1H-quinolin-3-yl)carbonylamino]phenyl]aminoformic acid ethyl ester] | 25 to 100% | – |
| N#Cc1cc(Cl)cc(Cl)c1NC(=O)c1c[nH]c2ccccc2c1=O [Compound 369, N-(2,4-dichloro-6-cyano-phenyl)-4-oxo-1H-quinoline-3-carboxamide] | < 25% | – |

— patent US8802700B2 (Vertex Pharmaceuticals Incorporated, priority 2010, dated 2014)
